{"source": "patent US20250215029A1", "about": "(Recludix Pharma, Inc., priority 2022, published 2025)", "data": [{"biological_target": "T1, pY705-STAT3 in PBMC (Homo sapiens, UniProt P40763)", "T1 construct": "Cryopreserved Peripheral Blood Mononuclear Cells (PBMC) are from AllCells; host or cells: cryopreserved PBMC", "T1 sequence (P40763 whole entry)": "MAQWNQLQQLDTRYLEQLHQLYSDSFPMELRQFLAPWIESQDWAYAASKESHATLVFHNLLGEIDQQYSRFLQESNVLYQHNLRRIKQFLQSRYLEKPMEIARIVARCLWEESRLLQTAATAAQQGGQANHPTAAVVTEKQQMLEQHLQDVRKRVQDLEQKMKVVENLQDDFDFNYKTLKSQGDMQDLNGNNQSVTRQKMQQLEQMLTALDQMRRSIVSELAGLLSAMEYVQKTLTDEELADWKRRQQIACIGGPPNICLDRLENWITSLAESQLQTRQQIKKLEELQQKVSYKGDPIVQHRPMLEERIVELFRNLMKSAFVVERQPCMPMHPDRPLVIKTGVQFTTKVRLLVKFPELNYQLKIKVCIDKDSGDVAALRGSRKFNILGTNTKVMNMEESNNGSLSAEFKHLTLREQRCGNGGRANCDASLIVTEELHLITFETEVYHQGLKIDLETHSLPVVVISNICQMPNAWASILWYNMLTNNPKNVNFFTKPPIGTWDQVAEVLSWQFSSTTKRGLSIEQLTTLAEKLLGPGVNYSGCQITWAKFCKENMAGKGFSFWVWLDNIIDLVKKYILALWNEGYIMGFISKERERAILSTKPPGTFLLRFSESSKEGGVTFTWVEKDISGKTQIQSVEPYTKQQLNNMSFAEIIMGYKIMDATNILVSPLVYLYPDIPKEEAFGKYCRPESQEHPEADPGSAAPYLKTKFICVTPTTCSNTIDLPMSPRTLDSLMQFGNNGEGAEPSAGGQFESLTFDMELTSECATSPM", "experiment": "MSD-pSTAT-PBMC Assay (pSTAT3, IL-6 stimulated)", "type": "cell-based", "settings": "PBMC, compound 3 hrs, then 10 ng/mL IL-6 for 10 min; Table 115; read-out: STAT3", "source_text": "Cryopreserved Peripheral Blood Mononuclear Cells (PBMC) are from AllCells. Recombinant Human IL-4 and IL-6 are from Peprotech. Mouse monoclonal anti-STAT3 antibody, rabbit monoclonal anti-pY705-STAT3 antibody, rabbit monoclonal Anti-pY641-STAT6 antibody, and lysis buffer are from Cell Signaling Technology (CST). Mouse monoclonal anti-STAT6 antibody is from BioLegend. Assay plates, blocker, and anti-rabbit secondary antibody are from Meso Scale Discovery (MSD).\nCyropreserved PBMCs were thawed out and allowed to recover overnight in IMDM+10% heat-inactivated FBS prior to plating 50,000 (STAT3) or 25,000 (STAT6) cells per well in 96-well U-bottom tissue culture plates. Cells were treated with compound for 3 hrs, then stimulated with 10 ng/mL IL-6 (STAT3) or 1 ng/mL IL-4 (STAT6) for 10 min. Cells were then spun down and washed with ice-cold PBS prior to lysing the cell pellet with 1× lysis buffer (CST) with 1× HALT protease and phosphatase inhibitor cocktail (Thermo). Lysates were transferred to and incubated overnight at 4° C. with shaking in QuickPlex 96-well high bind assay plates (MSD) pre-coated overnight with 30 μL per well of 0.6 μg/mL mouse monoclonal anti-STAT3 antibody (STAT3) or 2 μg/mL mouse monoclonal anti-STAT6 antibody (STAT6) in 1× PBS, and pre-blocked for 1 hour with 3% Blocker-A (MSD). Captured protein in the assay plates were then washed and probed with 25 μL per well of […] rabbit monoclonal anti-pY705-STAT3 antibody (STAT3) or 0.18 μg/ml rabbit monoclonal Anti-pY641-STAT6 antibody (STAT6) in 1% Blocker-A for 1 hour at room temperature with shaking, then washed and probed with 25 ul per well of 1 ug/ml Sulfo-TAG Labeled Goat Anti-Rabbit Antibody (MSD) in 1% Blocker-A for 1 hour at room temperature with shaking. Assay plates were then washed and 150 μL of 1× Read Buffer-T (MSD) was added to each well prior to reading on an SQ120 MSD Plate Reader. Assay signal from each sample was subtracted by the signal from unstimulated control wells and normalized to DMSO control wells. IC50 values were calculated using Graph Pad Prism Dose-Response Nonlinear Regression with variable slope. For both pSTAT3 and pSTAT6 A=≤100 nM; B 100-1000 nM; C=>1000-3000 nM; D=>3 μM; and NT=Not Tested.", "units": {"IC50": "nM"}, "values": [{"smiles": "CCCOC(=O)[C@H](C)NP(=O)(Cc1ccc2sc(C(=O)N[C@H]3CCC[C@H]4CC[C@@H](C(=O)N5CC(c6cccnc6)C5)N4C3=O)cc2c1)Oc1ccccc1", "note": "(stereo partly drawn) [Compound 250, propyl (((2-(((3S,6S,9aS)-5-oxo-3-(3-(pyridin-3-yl)azetidine-1-carbonyl)octahydro-1H-pyrrolo[1,2-a]azepin-6-yl)carbamoyl)benzo [b]thiophen-5-yl)methyl)(phenoxy)phosphoryl)-L-alaninate]", "IC50": "< 100"}, {"smiles": "CCCOC(=O)[C@H](C)NP(=O)(Cc1ccc2sc(C(=O)N[C@H]3CC(C)C[C@H]4CC[C@@H](C(=O)N5CC(c6cnccc6C)C5)N4C3=O)cc2c1)Oc1ccccc1", "note": "(stereo partly drawn) [Compound 251, propyl (((2-(((3S,6S,9aR)-8-methyl-3-(3-(4-methylpyridin-3-yl)azetidine-1-carbonyl)-5-oxooctahydro-1H-pyrrolo[1,2-a]azepin-6-yl)carbamoyl)benzo [b]thiophen-5-yl)methyl)(phenoxy)phosphoryl)-L-alaninate]", "IC50": "< 100"}, {"smiles": "CCCCOC(=O)[C@H](C)NP(=O)(Oc1ccccc1)C(F)(F)c1ccc2sc(C(=O)N[C@H]3CCC[C@H]4CC[C@@H](C(=O)N5CC(c6cccnc6)C5)N4C3=O)cc2c1", "note": "(stereo partly drawn) [Compound 254, butyl ((difluoro(2-(((3S,6S,9aS)-5-oxo-3-(3-(pyridin-3-yl)azetidine-1-carbonyl)octahydro-1H-pyrrolo[1,2-a]azepin-6-yl)carbamoyl)benzo [b]thiophen-5-yl)methyl)(phenoxy)phosphoryl)-L-alaninate]", "IC50": "100 to 1000"}, {"smiles": "C[C@H](NP(=O)(Cc1ccc2sc(C(=O)N[C@H]3CCC[C@H]4CC[C@@H](C(=O)N5CC(c6cccnc6)C5)N4C3=O)cc2c1)Oc1ccccc1)C(=O)OCC(C)(C)C", "note": "(stereo partly drawn) [Compound 256, neopentyl (((2-(((3S,6S,9aS)-5-oxo-3-(3-(pyridin-3-yl)azetidine-1-carbonyl)octahydro-1H-pyrrolo[1,2-a]azepin-6-yl)carbamoyl)benzo [b]thiophen-5-yl)methyl)(phenoxy)phosphoryl)-L-alaninate]", "IC50": "< 100"}, {"smiles": "CCCOC(=O)[C@H](C)NP(=O)(Cc1ccc2sc(C(=O)N[C@H]3CCC[C@H]4CC[C@@H](C(=O)N5CC(c6cnccc6CC)C5)N4C3=O)cc2c1)Oc1ccccc1", "note": "(stereo partly drawn) [Compound 257, propyl (((2-(((3S,6S,9aS)-3-(3-(4-ethylpyridin-3-yl)azetidine-1-carbonyl)-5-oxooctahydro-1H-pyrrolo[1,2-a]azepin-6-yl)carbamoyl)benzo [b]thiophen-5-yl)methyl)(phenoxy)phosphoryl)-L-alaninate]", "IC50": "< 100"}, {"smiles": "CCC(CC)COC(=O)[C@H](C)NP(=O)(Cc1ccc2sc(C(=O)N[C@H]3CCC[C@H]4CC[C@@H](C(=O)N5CC(c6cccnc6)C5)N4C3=O)cc2c1)Oc1ccccc1", "note": "(stereo partly drawn) [Compound 258, 2-ethylbutyl (((2-(((3S,6S,9aS)-5-oxo-3-(3-(pyridin-3-yl)azetidine-1-carbonyl)octahydro-1H-pyrrolo[1,2-a]azepin-6-yl)carbamoyl)benzo [b]thiophen-5-yl)methyl)(phenoxy)phosphoryl)-L-alaninate]", "IC50": "< 100"}, {"smiles": "CC(C)COC(=O)[C@H](C)NP(=O)(Cc1ccc2sc(C(=O)N[C@H]3CCC[C@H]4CC[C@@H](C(=O)N5CC(c6cccnc6)C5)N4C3=O)cc2c1)Oc1ccccc1", "note": "(stereo partly drawn) [Compound 259, isobutyl (((2-(((3S,6S,9aS)-5-oxo-3-(3-(pyridin-3-yl)azetidine-1-carbonyl)octahydro-1H-pyrrolo[1,2-a]azepin-6-yl)carbamoyl)benzo [b]thiophen-5-yl)methyl)(phenoxy)phosphoryl)-L-alaninate]", "IC50": "< 100"}, {"smiles": "CCCOC(=O)[C@H](C)NP(=O)(Cc1ccc2sc(C(=O)N[C@H]3CCC[C@H]4CC[C@@H](C(=O)N5CC(c6cncnc6C)C5)N4C3=O)cc2c1)Oc1ccccc1", "note": "(stereo partly drawn) [Compound 260, propyl (((2-(((3S,6S,9aS)-3-(3-(4-methylpyrimidin-5-yl)azetidine-1-carbonyl)-5-oxooctahydro-1H-pyrrolo[1,2-a]azepin-6-yl)carbamoyl)benzo [b]thiophen-5-yl)methyl)(phenoxy)phosphoryl)-L-alaninate]", "IC50": "1000 to 3000"}, {"smiles": "CCCOC(=O)[C@H](C)NP(=O)(Oc1ccccc1)C(F)c1ccc2sc(C(=O)N[C@H]3CCC[C@H]4CC[C@@H](C(=O)N5CC(c6cnccc6CC)C5)N4C3=O)cc2c1", "note": "(stereo partly drawn) [Compound 261, propyl (((2-(((3S,6S,9aS)-3-(3-(4-ethylpyridin-3-yl)azetidine-1-carbonyl)-5-oxooctahydro-1H-pyrrolo[1,2-a]azepin-6-yl)carbamoyl)benzo [b]thiophen-5-yl)fluoromethyl) (phenoxy)phosphoryl)-L-alaninate]", "IC50": "< 100"}, {"smiles": "CCCOC(=O)CNP(=O)(Cc1ccc2sc(C(=O)N[C@H]3CCC[C@H]4CC[C@@H](C(=O)N5CC(c6cccnc6)C5)N4C3=O)cc2c1)Oc1ccccc1", "note": "(stereo partly drawn) [Compound 264, propyl (((2-(((3S,6S,9aS)-5-oxo-3-(3-(pyridin-3-yl)azetidine-1-carbonyl)octahydro-1H-pyrrolo[1,2-a]azepin-6-yl)carbamoyl)benzo [b]thiophen-5-yl)methyl)(phenoxy)phosphoryl)glycinate]", "IC50": "100 to 1000"}, {"smiles": "CCCOC(=O)[C@H](C)NP(=O)(Oc1ccccc1)C(F)c1ccc2sc(C(=O)N[C@H]3CCCC[C@H]4CC[C@@H](C(=O)NCc5cnc6[nH]cnc6c5)N4C3=O)cc2c1", "note": "(stereo partly drawn) [Compound 265, propyl (((2-(((3S,6S,10aS)-3-(((3H-imidazo[4,5-b]pyridin-6-yl)methyl)carbamoyl)-5-oxodecahydropyrrolo [1,2-a]azocin-6-yl)carbamoyl)benzo [b]thiophen-5-yl)fluoromethyl) (phenoxy)phosphoryl)-L-alaninate]", "IC50": "100 to 1000"}, {"smiles": "CCCOC(=O)[C@H](C)NP(=O)(Oc1ccccc1)C(F)c1ccc2sc(C(=O)N[C@H]3CCC[C@H]4CC[C@@H](C(=O)N5CC(c6cccc(C#N)n6)C5)N4C3=O)cc2c1", "note": "(stereo partly drawn) [Compound 266, propyl (((2-(((3S,6S,9aS)-3-(3-(6-cyanopyridin-2-yl)azetidine-1-carbonyl)-5-oxooctahydro-1H-pyrrolo[1,2-a]azepin-6-yl)carbamoyl)benzo [b]thiophen-5-yl)fluoromethyl) (phenoxy)phosphoryl)-L-alaninate]", "IC50": "< 100"}, {"smiles": "CCCOC(=O)[C@H](C)NP(=O)(Cc1ccc2sc(C(=O)N[C@H]3CCC[C@H]4CC[C@@H](C(=O)N5CC(c6cnccc6C6CC6)C5)N4C3=O)cc2c1)Oc1ccccc1", "note": "(stereo partly drawn) [Compound 267, propyl (((2-(((3S,6S,9aS)-3-(3-(4-cyclopropylpyridin-3-yl)azetidine-1-carbonyl)-5-oxooctahydro-1H-pyrrolo[1,2-a]azepin-6-yl)carbamoyl)benzo [b]thiophen-5-yl)methyl)(phenoxy)phosphoryl)-L-alaninate]", "IC50": "< 100"}, {"smiles": "CCCOC(=O)[C@H](C)NP(=O)(Cc1ccc2sc(C(=O)N[C@H]3CCC[C@H]4CC[C@@H](C(=O)N5CC(c6cnccc6Cl)C5)N4C3=O)cc2c1)Oc1ccccc1", "note": "(stereo partly drawn) [Compound 268, propyl (((2-(((3S,6S,9aS)-3-(3-(4-chloropyridin-3-yl)azetidine-1-carbonyl)-5-oxooctahydro-1H-pyrrolo[1,2-a]azepin-6-yl)carbamoyl)benzo [b]thiophen-5-yl)methyl)(phenoxy)phosphoryl)-L-alaninate]", "IC50": "100 to 1000"}, {"smiles": "CCCOC(=O)[C@H](C)NP(=O)(Cc1ccc2sc(C(=O)N[C@H]3CCC[C@H]4CC[C@@H](C(=O)N5CC(c6cnc(OC)cc6F)C5)N4C3=O)cc2c1)Oc1ccccc1", "note": "(stereo partly drawn) [Compound 271, propyl (((2-(((3S,6S,9aS)-3-(3-(4-fluoro-6-methoxypyridin-3-yl)azetidine-1-carbonyl)-5-oxooctahydro-1H-pyrrolo[1,2-a]azepin-6-yl)carbamoyl)benzo [b]thiophen-5-yl)methyl)(phenoxy)phosphoryl)-L-alaninate]", "IC50": "100 to 1000"}, {"smiles": "CCCOC(=O)[C@H](C)NP(=O)(Cc1ccc2sc(C(=O)N[C@H]3CCC[C@H]4CC[C@@H](C(=O)N5CC(c6cccnc6C(F)F)C5)N4C3=O)cc2c1)Oc1ccccc1", "note": "(stereo partly drawn) [Compound 272, propyl (((2-(((3S,6S,9aS)-3-(3-(2-(difluoromethyl)pyridin-3-yl)azetidine-1-carbonyl)-5-oxooctahydro-1H-pyrrolo[1,2-a]azepin-6-yl)carbamoyl)benzo [b]thiophen-5-yl)methyl)(phenoxy)phosphoryl)-L-alaninate]", "IC50": "< 100"}]}]}
